According to US10344014B2, “Amorphous form of tetracyclic compound” (Chugai Seiyaku Kabushiki Kaisha, priority 2014, dated 2019):

Key:
[1] = Intrinsic dissolution rate, USP chapter 1087 (Example 5); assay type: physicochemical
Description: A test of measuring intrinsic dissolution rate (according to USP chapter 1087 “APPARENT […] DISSOLUTION-DISSOLUTION TESTING PROCEDURES FOR ROTATING DISK AND STATIONARY DISK”) was performed on a composition containing the amorphous and crystalline forms (form I crystals) of 9-ethyl-6,6-dimethyl-8-(4-morpholin-4-yl-piperidin-1-yl)-11-oxo-6,11-dihydro-5H-benzo[b]carbazole-3-carbonitrilemonohydrochloride at certain ratios. It was concluded that the dissolution rate was increased when the content of the amorphous was about 15% or higher.

[2] = Residual rate of principal drug by HPLC after storage (Test Example 5); assay type: physicochemical
Description: The amorphous substances and the solid dispersions of 9-ethyl-6,6-dimethyl-8-(4-morpholin-4-yl-piperidin-1-yl)-11-oxo-6,11-dihydro-5H-benzo[b]carbazole-3-earbonitrile obtained in Examples 8 to 15 were tested under two conditions: i) they were stored in a thermostatic bath set at 40° C. for 3 months, and ii) they were stored in a thermostatic bath set at 40° C. and 75% RH for 3 months in an open state. Residual rates of the principal drugs were measured under following conditions of high performance liquid chromatography. It was concluded that the amorphous substances and the solid dispersions were chemically stable.
Detector: UV absorptiometer (measurement wavelength: 230 nm)
Column: stainless column of 4.6 mm in inner diameter and 15 cm in length, filled with 3.5 um of octadecylsilyl silica gel for liquid chromatography
Column temperature: fixed temperature about 35° C.
Mobile phase A: mixed solution of acetonitrile/trifluoroacetic acid (2000:1)
Mobile phase B: mixed solution of water/trifluoroacetic acid (2000:1)
Mobile phase supply: controlled concentration gradient with varying mixing ratio of mobile phases A and B as follows.

| Compound | Intrinsic dissolution rate ([1]; Amount of amorphous 5.6%) | Intrinsic dissolution rate ([1]; Amount of amorphous 9.8%) | Intrinsic dissolution rate ([1]; Amount of amorphous 16.8%) | Intrinsic dissolution rate ([1]; Amount of amorphous (%): 0 < Lower than detection limit) | Retention rate after 3 months at 40° C. in 75 % RH ([2]; 40° C. and 75% RH, open state) | Retention rate after 3 months at 40° C. ([2]; thermostatic bath 40° C.) |
| --- | --- | --- | --- | --- | --- | --- |
| CCc1cc2c(cc1N1CCC(N3CCOCC3)CC1)C(C)(C)c1[nH]c3cc(C#N)ccc3c1C2=O.Cl [9-ethyl-6,6-dimethyl-8-(4-morpholin-4-yl-piperidin-1-yl)-11-oxo-6,11-dihydro-5H-benzo[b]carbazole-3-carbonitrilemonohydrochloride] | 0.0065 mg/cm^2/min | 0.0065 mg/cm^2/min | 0.0112 mg/cm^2/min | 0.0078 mg/cm^2/min |  |  |
| CCc1cc2c(cc1N1CCC(N3CCOCC3)CC1)C(C)(C)c1[nH]c3cc(C#N)ccc3c1C2=O [Example 8, 9-ethyl-6,6-dimethyl-8-(4-morpholin-4-yl-piperidin-1-yl)-11-oxo-6,11-dihydro-5H-benzo[b]carbazole-3-carbonitrile] |  |  |  |  | 99.66 | 99.60 |
